Source: patent publication US10273221B2, “Microbiocidal heterobicyclic derivatives” (Syngenta Participations AG, priority 2015, dated 2019)

Assays:
[1] = system: Pyrenophora teres; experiment: Pyrenophora teres / liquid culture (net blotch); format: cell-based; conditions: growth inhibition determined photometrically 3-4 days after application, vs untreated control
[2] = system: Fusarium culmorum; experiment: microbe, parasite or virus in culture; format: cell-based; conditions: 72 h, read-out: disease control
[3] = system: Gaeumannomyces graminis; experiment: Gaeumannomyces graminis / liquid culture (take-all of cereals); format: cell-based; conditions: growth inhibition determined photometrically 4-5 days after application, vs untreated control, read-out: disease control
[4] = system: Botryotinia fuckeliana (Botrytis cinerea); experiment: Botryotinia fuckeliana (Botrytis cinerea) / liquid culture (gray mould); format: cell-based; conditions: growth inhibition determined photometrically 3-4 days after application, vs untreated control, read-out: disease control
[5] = system: Monographella nivalis (Microdochium nivale); experiment: Monographella nivalis (Microdochium nivale) / liquid culture (foot rot cereals); format: cell-based; conditions: 96 h, growth inhibition determined photometrically 4-5 days after application, vs untreated control, read-out: disease control
[6] = system: Glomerella lagenarium (Colletotrichum lagenarium); experiment: Glomerella lagenarium (Colletotrichum lagenarium) / liquid culture (anthracnose); format: cell-based; conditions: Colletotrichum orbiculare, growth inhibition measured photometrically 3-4 days after application, vs untreated control, read-out: disease control
[7] = system: Magnaporthe grisea (Pyricularia oryzae); experiment: microbe, parasite or virus in culture; format: cell-based; conditions: 72 h, read-out: control of Magnaporthe grisea
[8] = system: Sclerotinia sclerotiorum; experiment: Sclerotinia sclerotiorum / liquid culture (cottony rot); conditions: 72 h, read-out: control of Sclerotinia sclerotiorum
Method: Sclerotinia sclerotiorum/Liquid Culture (Cottony Rot)
Mycelia fragments of a newly grown liquid culture of the fungus are directly mixed into nutrient broth (Vogels broth). After placing a (DMSO) solution of test compound into a microtiter plate (96-well format) the nutrient broth containing the fungal material is added. The test plates are incubated at 24° C. and the inhibition of growth is determined photometrically 3-4 days after application.

[9] = system: Mycosphaerella graminicola (Septoria tritici); experiment: Mycosphaerella graminicola (Septoria tritici) / liquid culture (Septoria blotch); format: cell-based; conditions: Zymoseptoria tritici, 96 h, growth inhibition determined photometrically 4-5 days after application, vs untreated control, read-out: disease control

| SMILES | inhibition of growth at 20 ppm [1] [%] | melting point [°C] | inhibition of growth at 200 ppm [2] [%] | inhibition of growth at 200 ppm [3] [%] | inhibition of growth at 200 ppm [4] [%] | inhibition of growth at 200 ppm [5] [%] | inhibition of growth at 200 ppm [6] [%] | inhibition of growth at 20 ppm [7] [%] | inhibition of growth at 20 ppm [8] [%] | inhibition of growth at 200 ppm [9] [%] |
| --- | --- | --- | --- | --- | --- | --- | --- | --- | --- | --- |
| CC1(C)N=C(n2cnc3c(Br)cccc32)c2cccc(F)c2C1(C)C [E-4] | ≥ 80 | 48 to 49 | ≥ 80 | ≥ 80 | ≥ 80 | ≥ 80 | ≥ 80 | ≥ 80 |  |  |
| CC1(C)N=C(n2cnc3c(F)cccc32)c2cccc(F)c2C1(C)C [E-7] | ≥ 80 |  | ≥ 80 | ≥ 80 | ≥ 80 | ≥ 80 | ≥ 80 | ≥ 80 |  |  |
| Cc1cccc2c1ncn2C1=NC(C)(C)C2(CC2)c2ccccc21 [E-9] | ≥ 80 |  | ≥ 80 | ≥ 80 | ≥ 80 | ≥ 80 | ≥ 80 | ≥ 80 |  |  |
| CCc1cccc2c1ncn2C1=NC(C)(C)C(C)(C)c2c(F)cccc21 [E-14] | ≥ 80 | 87 to 88 | ≥ 80 | ≥ 80 | ≥ 80 | ≥ 80 | ≥ 80 | ≥ 80 |  |  |
| Cc1cccc2c1ncn2C1=NC(C)(C)C(F)(F)c2ccccc21 [E-15] | ≥ 80 |  | ≥ 80 | ≥ 80 | ≥ 80 | ≥ 80 | ≥ 80 | ≥ 80 | ≥ 80 |  |
| CC1(C)N=C(n2cnc3c(Cl)cccc32)c2cccc(F)c2C1(C)C [E-17] | ≥ 80 | 50 to 51 | ≥ 80 | ≥ 80 | ≥ 80 | ≥ 80 | ≥ 80 | ≥ 80 | ≥ 80 |  |
| Cc1ccc2c(ncn2C2=NC(C)(C)C(C)(C)c3c(F)cccc32)c1C [E-18] | ≥ 80 |  | ≥ 80 | ≥ 80 | ≥ 80 | ≥ 80 | ≥ 80 | ≥ 80 | ≥ 80 | ≥ 80 |
| Cc1ccc2c(ncn2C2=NC(C)(C)C(F)(F)c3c(F)cccc32)c1C [E-19] | ≥ 80 |  | ≥ 80 | ≥ 80 | ≥ 80 | ≥ 80 | ≥ 80 | ≥ 80 | ≥ 80 |  |
| Cc1cccc2c1C(F)(F)C(C)(C)N=C2n1cnc2c(C)cccc21 [E-21] | ≥ 80 |  | ≥ 80 | ≥ 80 | ≥ 80 | ≥ 80 | ≥ 80 | ≥ 80 | ≥ 80 | ≥ 80 |
| Cc1cccc2c1C(F)(F)C(C)(C)N=C2n1cnc2c(C)c(C)ccc21 [E-22] | ≥ 80 |  | ≥ 80 |  | ≥ 80 | ≥ 80 | ≥ 80 | ≥ 80 | ≥ 80 | ≥ 80 |
| Cc1ccc2c(ncn2C2=NC(C)(C)C(F)(F)c3ccccc32)c1C [E-23] | ≥ 80 |  | ≥ 80 | ≥ 80 | ≥ 80 | ≥ 80 | ≥ 80 | ≥ 80 | ≥ 80 |  |
| Cc1cccc2c1C(=O)C(C)(C)N=C2n1cnc2c(C)cccc21 [E-26] | ≥ 80 | 96 to 101 | ≥ 80 |  | ≥ 80 | ≥ 80 | ≥ 80 | ≥ 80 | ≥ 80 |  |
| Cc1cccc2c1C(=O)C(C)(C)N=C2n1cnc2c(C)c(C)ccc21 [E-27] | ≥ 80 | 145 to 149 | ≥ 80 |  | ≥ 80 | ≥ 80 | ≥ 80 | ≥ 80 | ≥ 80 |  |
| Cc1cc2ncn(C3=NC(C)(C)C(C)(C)c4c(F)cccc43)c2cc1C [E-30] |  |  | ≥ 80 | ≥ 80 | ≥ 80 | ≥ 80 | ≥ 80 | ≥ 80 | ≥ 80 | ≥ 80 |
| Cc1c(F)ccc2c1ncn2C1=NC(C)(C)C(F)(F)c2ccccc21 [E-32] |  | 118 to 121 | ≥ 80 | ≥ 80 | ≥ 80 | ≥ 80 | ≥ 80 | ≥ 80 | ≥ 80 | ≥ 80 |
| Cc1c(Cl)ccc2c1ncn2C1=NC(C)(C)C(F)(F)c2ccccc21 [E-33] |  |  | ≥ 80 | ≥ 80 | ≥ 80 | ≥ 80 | ≥ 80 | ≥ 80 | ≥ 80 | ≥ 80 |
| Cc1cccc2c1ncn2C1=NC(C)(C)C(=O)c2cc(Cl)ccc21 [E-34] |  | 129 to 133 | ≥ 80 |  | ≥ 80 | ≥ 80 |  | ≥ 80 |  | ≥ 80 |
| Cc1c(F)ccc2c1ncn2C1=NC(C)(C)C(=O)c2cc(Cl)ccc21 [E-35] |  | 133 to 136 | ≥ 80 |  | ≥ 80 |  |  | ≥ 80 |  | ≥ 80 |
| Cc1ccc2c(ncn2C2=NC(C)(C)C(=O)c3cc(Cl)ccc32)c1C [E-36] |  | 196 to 199 | ≥ 80 |  | ≥ 80 |  |  | ≥ 80 |  | ≥ 80 |
| CC1(C)N=C(n2cnc3c(F)c(F)ccc32)c2cccc(F)c2C1(C)C [E-50] |  | 112 to 114 | ≥ 80 |  | ≥ 80 | ≥ 80 | ≥ 80 | ≥ 80 |  | ≥ 80 |
| Cc1cccc2c1ncn2C1=NCC2(CCCC2)c2ccccc21 [E-53] |  |  |  |  | ≥ 80 | ≥ 80 |  | ≥ 80 |  | ≥ 80 |
| Cc1cccc2c1ncn2C1=NCC2(CCC2)c2ccccc21 [E-54] |  |  |  |  | ≥ 80 | ≥ 80 | ≥ 80 | ≥ 80 |  | ≥ 80 |
| CC1(C)N=C(n2cnc3c4c(ccc32)CCC4)c2ccccc2C1(F)F [E-55] |  |  | ≥ 80 |  | ≥ 80 | ≥ 80 | ≥ 80 | ≥ 80 | ≥ 80 | ≥ 80 |
| Cc1ccc2c(ncn2C2=NC(C)(C)C(F)(F)c3cc(F)ccc32)c1C [E-56] |  |  | ≥ 80 |  | ≥ 80 | ≥ 80 | ≥ 80 | ≥ 80 | ≥ 80 | ≥ 80 |
| Cc1ccc2c(ncn2C2=NC(C)(C)Cc3cc(F)ccc32)c1C [E-57] |  | 143 to 145 | ≥ 80 |  | ≥ 80 | ≥ 80 | ≥ 80 | ≥ 80 | ≥ 80 | ≥ 80 |
| Cc1ccc2c(ncn2C2=NC(C)(C)C(C)(C)c3c(F)cccc32)c1F [E-60] |  |  | ≥ 80 | ≥ 80 | ≥ 80 | ≥ 80 | ≥ 80 | ≥ 80 |  | ≥ 80 |
